Test results taken from patent publication US9657033B2, “Tetrahydronaphthyridine and related bicyclic compounds for inhibition of RORγ activity and the treatment of disease” (Merck Sharp & Dohme Corp., priority 2012, dated 2017).

Legend:
RORγ-LBD [1] = molecular target: T1, RORγ-LBD (Homo sapiens (Human), UniProt P51449); test: RORγ-Ligand Binding Domain (LBD) TR-FRET Assay Protocol I; type: biochemical; settings: RORγ-LBD lysate from SF9 cells, SRC1-2 peptide
Experimental: Part I—Procedures for RORγ-Ligand Binding Domain TR-FRET Assay Protocol I
Recombinant,HIS-tagged RORγ-LBD was expressed in SF9 cells using a baculovirus expression system. Cells were lysed and the lysate was used as a source for RORγ-LBD for the assay. A 1:80 dilution of RORγ-LBD lysate in assay buffer (25 mM HEPES pH 7.0, 100 mM NaCl, 0.01% Tween, 0.1% BSA) was prepared and 5 μL was added to each well (RORγ-LBD final concentration ˜3 nM). Control wells received lysate from SF9 cells not expressing RORγ-LBD.
Compounds to be tested were diluted to 100× final test concentration in DMSO and further diluted to 4× final test concentration using assay buffer to provide the test compound mixture. An aliquot (5 μL) of the test compound mixture was added to each well.
A 4× stock of biotinylated-LXXLL peptide from SRC1-2 (Biotin-[…]) was prepared in assay buffer and a 5 μL aliquot added to each well (450 nM final concentration). A 4× solution of europium tagged anti-HIS antibody (2 nM final concentration) and APC conjugated streptavidin (60 nM final concentration) were prepared and a 5 μL aliquot added to each well.
(§1) The final assay mixture was incubated for 4 hours to overnight, and the fluorescence signal was measured on an Envision plate reader: (Excitation filter=340 nm; APC emission=665 nm; Europium emission=615 nm; dichroic mirror=D400/D630; delay time=100 μs, integration time=200 μs).
EC50 values for test compounds were calculated from the quotient of the fluorescence signal at 665 nm divided by the fluorescence signal at 615 nm using GraphPad Prism software

RORγ-LBD [2] = molecular target: T1, RORγ-LBD; test: RORγ-Ligand Binding Domain (LBD) TR-FRET Assay Protocol II; type: biochemical; settings: purified RORγ-LBD, SRC1 peptide, overnight at 4° C.
Experimental: Part II—Procedures for RORγ-Ligand Binding Domain TR-FRET Assay Protocol II
HIS-tagged RORγ-LBD protein was expressed in SF9 cells using a baculovirus expression system. The RORγ-LBD protein was purified by […]. Separately, SF9 cells not expressing recombinant protein were lysed in TBS buffer (25 mM Tris, pH 8.0, 150 mM NaCl) under sonication. The lysate was added to the purified RORγ-LBD in a volume equivalent of 0.75 μL lysate (from 30,000 SF9 cells) per 75 femtomol of RORγ-LBD protein. The resulting mixture was diluted in assay buffer (50 mM Tris pH 7.0, 50 mM KCl, 1 mM EDTA, 0.1 mM DTT, 0.01% BSA) to obtain RORγ-LBD protein at a final concentration of 3 nM.
Compounds to be tested were injected to the assay plate using Acoustic Droplet Ejection technology by Echo 550 liquid handler (Labcyte, Calif.).
A stock of biotinylated-LXXLL peptide from coactivator SRC1 (Biotin-[…]) was prepared in assay buffer and added to each well (100 nM final concentration). A solution of Europium tagged anti-HIS antibody (1.25 nM final concentration) and APC-conjugated streptavidin (8 nM final concentration) were also added to each well.
as §1, with “overnight at 4° C.,” for “for 4 hours to overnight,”, “μs). The EC50 value for test compounds was calculated from the quotient of the fluorescence signal at 665 nm divided by the fluorescence signal at 615 nm” for “μs).”

T1 sequence (P51449 269-508): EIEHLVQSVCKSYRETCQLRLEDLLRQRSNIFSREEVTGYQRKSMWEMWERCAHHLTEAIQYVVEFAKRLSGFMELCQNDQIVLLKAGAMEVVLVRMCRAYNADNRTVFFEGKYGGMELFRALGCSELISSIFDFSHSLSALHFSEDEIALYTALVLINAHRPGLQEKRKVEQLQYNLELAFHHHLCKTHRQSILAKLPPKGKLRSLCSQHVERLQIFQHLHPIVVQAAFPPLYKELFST

SMILES | EC50 (RORγ-LBD [1]) | EC50 (RORγ-LBD [2])
CCc1cccc(S(=O)(=O)N2C[C@H](C)Oc3ncc(NC(=O)c4c(F)cccc4Cl)cc32)c1 [Compound 15, (S)-2-chloro-N-(1-((3-ethylphenyl)sulfonyl)-3-methyl-2,3-dihydro-1H-pyrido-[2,3-b][1,4]oxazin-7-yl)-6-fluorobenzamide] | 31 nM | 10 nM
CC(=O)NC[C@H]1CN(S(=O)(=O)c2cccc(C)c2)c2cc(NC(=O)c3c(F)cccc3Cl)cnc2O1 [Compound 16, (S)-N-(3-(acetamidomethyl)-1-(m-tolylsulfonyl)-2,3-dihydro-1H-pyrido[2,3-b][1,4]oxazin-7-yl)-2-chloro-6-fluorobenzamide] | 336 nM | 123 nM
CC(=O)NC[C@H]1CN(S(=O)(=O)c2cccc(C)c2)c2cc(NC(=O)[C@@H](C)c3ccccc3)cnc2O1 [Compound 17, (S)-N-((S)-3-(Acetamidomethyl)-1-(m-tolylsulfonyl)-2,3-dihydro-1H-pyrido[2,3-b][1,4]oxazin-7-yl)-2-phenylpropanamide] | 760 nM | 107 nM
CC1COc2ncc(NC(=O)c3c(F)cccc3Cl)cc2N1S(=O)(=O)c1cccc(C#N)c1 (centres unmarked) [Compound 20] | 390 nM | 108 nM
Cc1cccc(S(=O)(=O)N2C[C@H](C)Oc3ncc(NC(=O)c4c(F)cccc4C(F)(F)F)cc32)c1 [Compound 24] | 132 nM | 6 nM
C[C@H]1CN(S(=O)(=O)c2cccc(C#N)c2)c2cc(NC(=O)c3c(F)cccc3Cl)cnc2O1 [Compound 25] | 1030 nM | 70 nM
C[C@H]1CN(S(=O)(=O)c2ccc(F)cc2)c2cc(NC(=O)c3c(F)cccc3Cl)cnc2O1 [Compound 26] | 829 nM | 63 nM
C[C@H]1CN(S(=O)(=O)c2cccc(C3CC3)c2)c2cc(NC(=O)c3c(F)cccc3Cl)cnc2O1 [Compound 27] | 20 nM | 11 nM
Cc1cccc(S(=O)(=O)N2C[C@H](C)Oc3ncc(NC(=O)[C@@H](C)c4ccccc4)cc32)c1 [Compound 28] | 810 nM | 73 nM
C[C@H](C(=O)Nc1cnc2c(c1)N(S(=O)(=O)c1ccc(F)cc1)C[C@H](C)O2)c1ccccc1 [Compound 29] | 3050 nM | 387 nM
O=C(Nc1cnc2c(c1)N(S(=O)(=O)c1ccc(F)cc1)CCC2)c1c(F)cccc1F [Compound 36, 2,6-difluoro-N-(5-(4-fluorobenzenesulfonyl)-5,6,7,8-tetrahydro-[1,5]naphthyridin-3-yl)benzamide] | 700 nM | 202 nM
Cc1cccc(S(=O)(=O)N2CCCc3ncc(NC(=O)c4c(F)cccc4Cl)cc32)c1 [Compound 37, 2-chloro-6-fluoro-N-(5-(m-tolylsulfonyl)-5,6,7,8-tetrahydro-1,5-naphthyridin-3-yl)benzamide] | 52 nM | 16 nM
Cc1cccc(S(=O)(=O)N2CCCc3ncc(NC(=O)[C@@H](C)c4ccccc4)cc32)c1 [Compound 38, (S)-2-phenyl-N-(5-(m-tolylsulfonyl)-5,6,7,8-tetrahydro-1,5-naphthyridin-3-yl)propanamide] | 414 nM | 61 nM
